This is an account of results in US20090118276A1, “THIENOPYRIMIDINES, THIENOPYRIDINES, AND PYRROLOPYRIMIDINES AS B-RAF INHIBITORS” (priority 2007, published 2009).

The structures appear in SMILES notation. Like-named read-outs stand apart in the source and are kept apart here.

The experiment deals with T1, Flag/GST-tagged recombinant human B-Raf (Homo sapiens, UniProt P15056).
T1 construct: Flag; GST; made in house; host or cells: Sf9 insect cells (B-Raf); E. coli (MEK1-GST)
The experiment in a line: B-Raf Kinase to MEK1 ELISA. Format: biochemical. The method, then:
B-Raf Kinase to MEK1 ELISA
B-Raf1 Kinase Assay Procedure: B-Raf-1 is used to phosphorylate GST-MEK1.
B-Raf Assay Stock Solutions:
1. Assay Dilution Buffer (ADB): 20 mM MOPS, pH 7.2, 25 mM β-glycerol phosphate, 5 mM EGTA, 1 mM sodium orthovanadate, 1 mM dithiothreitol, 0.01% Triton X-100.
2. Magnesium/ATP Cocktail: ADB solution (minus Triton X-100) plus 200 μM cold ATP and 40 mM magnesium chloride.
4. Active Kinase: Active B-Raf: used at 0.2 nM per assay point.
8. Anti pMEK Ab (Upstate)
9. Anti-rabbit Ab/Europium conjugate (Wallac)
1. Add 25 μl of ADB containing B-Raf and Mek per assay (i.e. per well of a 96 well plate)
2. Add 25 μl of 0.2 mM ATP and 40 mM magnesium chloride in Magnesium/ATP Cocktail.
3. Incubate for 45 minutes at RT with occasional shaking.
4. Transfer this mixture to an anti-GST Ab coated 96 well plate (Nunc Immunosorb plates coated o/n with a-GST. Plate freshly washed 3× with TBS-T before use.
5. Incubate o/n at 30° C. in cold room.
6. Wash 3× with TBST, add Anti-Phospho MEK1 (1:1000, dilution depends upon lot)
7. Incubate for 60 minutes at RT in a shaking incubator
8. Wash 3× with TBST, add Anti-rabbit Ab/Europium conjugate (Wallac) (1:500, dilution depends upon lot)
9. Incubate for 60 minutes at RT on a platform shaker.
10. Wash plate 3× with TBS-T
11. Add 100 μl of Wallac Delfia Enhancement Solution and shake for 10 minutes.
12. Read plates in Wallac Victor model Plate Reader.
13. Collect data analyze in Excel for single point and IC50 determinations.
The % inhibition was determined for each compound concentration.
For orientation: ELISA stands for enzyme-linked immunosorbent assay.

[1] abbreviates: phosphorylation of GST-MEK1 by B-Raf (0.2 nM), phospho-MEK1 antibody/Europium readout, compound concentrations from 1 μM to 3 nM or 0.1 μM to 300 pm in half log dilutions, read-out: IC50.

T1 sequence (P15056 whole entry): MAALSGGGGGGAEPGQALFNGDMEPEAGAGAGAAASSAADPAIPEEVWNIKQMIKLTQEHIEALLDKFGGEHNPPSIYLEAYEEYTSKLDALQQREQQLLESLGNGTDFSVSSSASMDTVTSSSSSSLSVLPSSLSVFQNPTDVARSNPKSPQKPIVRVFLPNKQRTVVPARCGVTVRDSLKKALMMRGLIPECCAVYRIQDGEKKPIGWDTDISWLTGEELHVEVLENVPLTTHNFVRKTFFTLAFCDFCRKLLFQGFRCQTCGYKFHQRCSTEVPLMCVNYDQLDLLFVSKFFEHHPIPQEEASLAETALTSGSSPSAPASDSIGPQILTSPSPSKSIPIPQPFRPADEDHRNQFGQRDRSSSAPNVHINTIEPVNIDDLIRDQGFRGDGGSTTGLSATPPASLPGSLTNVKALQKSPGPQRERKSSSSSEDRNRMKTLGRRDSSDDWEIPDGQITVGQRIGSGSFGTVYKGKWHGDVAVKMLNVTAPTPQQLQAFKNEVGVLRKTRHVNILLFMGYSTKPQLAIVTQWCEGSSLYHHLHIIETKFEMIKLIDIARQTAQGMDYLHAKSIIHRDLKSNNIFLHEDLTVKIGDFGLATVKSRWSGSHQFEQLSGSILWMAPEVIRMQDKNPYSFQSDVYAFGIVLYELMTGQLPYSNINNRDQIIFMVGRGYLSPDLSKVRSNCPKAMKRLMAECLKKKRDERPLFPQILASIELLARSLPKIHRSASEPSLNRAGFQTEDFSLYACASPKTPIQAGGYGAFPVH

One may read the IC50 as the point on the concentration scale where inhibition reaches its midpoint. `N#Cc1cnc2cc(-c3ccncc3)sc2c1-c1cccc(NC(=O)c2cccc(C(F)(F)F)c2)c1` [Compound 5, N-[3-(6-cyano-2-pyridin-4-ylthieno[3,2-b]pyridin-7-yl)phenyl]-3-(trifluoromethyl)benzamide]: the IC50 under setting [1] was 5940 nM.
As for `O=C(Nc1cccc(-c2ncnc3cc(-c4ccncc4)sc23)c1)c1cccc(C(F)(F)F)c1` [Compound 6, N-[3-(6-pyridin-4-ylthieno[3,2-d]pyrimidin-4-yl)phenyl]-3-(trifluoromethyl)benzamide], the IC50 came out at 540 nM.
On the same count and under the same terms, in the case of `COc1ccc(C(=O)Nc2cccc(-c3c(C#N)cnc4cc(-c5ccncc5)sc34)c2)cc1C(F)(F)F` [Compound 7, N-[3-(6-cyano-2-pyridin-4-ylthieno[3,2-b]pyridin-7-yl)phenyl]-4-methoxy-3-(trifluoromethyl)benzamide] it was 9600 nM.
The same measure, in the same setting: to `COc1ccc(C(=O)Nc2cccc(-c3ncnc4sc(-c5ccncc5)cc34)c2)cc1C(F)(F)F` [Compound 35, 4-methoxy-N-[3-(6-pyridin-4-ylthieno[2,3-d]pyrimidin-4-yl)phenyl]-3-(trifluoromethyl)benzamide] belongs 3460 nM.
Still for that read-out and setting: in the case of `O=C(Nc1cccc(-c2ncnc3sc(-c4ccncc4)cc23)c1)Nc1ccc(F)c(C(F)(F)F)c1` [Compound 36, N-[4-fluoro-3-(trifluoromethyl)phenyl]-N′-[3-(6-pyridin-4-ylthieno[2,3-d]pyrimidin-4-yl)phenyl]urea] it was 2340 nM.
For `Cc1ccc(C(=O)Nc2cccc(-c3ncnc4sc(-c5ccncc5)cc34)c2)cc1C(F)(F)F` [Compound 37, 4-methyl-N-[3-(6-pyridin-4-ylthieno[2,3-d]pyrimidin-4-yl)phenyl]-3-(trifluoromethyl)benzamide], the IC50 was found to be 2610 nM.
Still for that read-out and setting: to `O=C(Nc1cccc(-c2ncnc3sc(-c4ccncc4)cc23)c1)c1ccc(F)c(C(F)(F)F)c1` [Compound 38, 4-fluoro-N-[3-(6-pyridin-4-ylthieno[2,3-d]pyrimidin-4-yl)phenyl]-3-(trifluoromethyl)benzamide] belongs 300 nM; to `O=C(Nc1cccc(-c2ncnc3sc(-c4ccncc4)cc23)c1)Nc1ccc(Cl)c(C(F)(F)F)c1` [Compound 39, N-[4-chloro-3-(trifluoromethyl)phenyl]-N′-[3-(6-pyridin-4-ylthieno[2,3-d]pyrimidin-4-yl)phenyl]urea], 1400 nM; to `O=C(Nc1cccc(-c2ncnc3sc(-c4ccncc4)cc23)c1)c1ccc(Cl)c(C(F)(F)F)c1` [Compound 40, 4-chloro-N-[3-(6-pyridin-4-ylthieno[2,3-d]pyrimidin-4-yl)phenyl]-3-(trifluoromethyl)benzamide], 3530 nM.
Same read-out and setting: to `O=C(Nc1cccc(-c2ncnc3sc(-c4ccncc4)cc23)c1)Nc1cccc(C(F)(F)F)c1` [Compound 41, N-[3-(6-pyridin-4-ylthieno[2,3-d]pyrimidin-4-yl)phenyl]-N′-[3-(trifluoromethyl)phenyl]urea] belongs 1790 nM.
Still for that read-out and setting: to `O=C(Nc1cccc(-c2ncnc3sc(-c4ccncc4)cc23)c1)c1cccc(C(F)(F)F)c1` [Compound 42, N-[3-(6-pyridin-4-ylthieno[2,3-d]pyrimidin-4-yl)phenyl]-3-(trifluoromethyl)benzamide] belongs 80 nM.
As for `Cc1ccc(NC(=O)Nc2cccc(-c3ncnc4sc(-c5ccncc5)cc34)c2)cc1C` [Compound 44, N-(3,4-dimethylphenyl)-N′-[3-(6-pyridin-4-ylthieno[2,3-d]pyrimidin-4-yl)phenyl]urea], the 50% inhibitory concentration (IC50) came to 1530 nM.
As to `O=C(Nc1cccc(Cl)c1)Nc1cccc(-c2ncnc3sc(-c4ccncc4)cc23)c1` [Compound 45, N-(3-chlorophenyl)-N′-[3-(6-pyridin-4-ylthieno[2,3-d]pyrimidin-4-yl)phenyl]urea], the IC50 was found to be 8750 nM.
The same measure, in the same setting: to `O=C(Nc1ccc(Cl)cc1)Nc1cccc(-c2ncnc3sc(-c4ccncc4)cc23)c1` [Compound 46, N-(4-chlorophenyl)-N′-[3-(6-pyridin-4-ylthieno[2,3-d]pyrimidin-4-yl)phenyl]urea] belongs 1230 nM.
Turning to `O=C(Nc1cccc(-c2ncnc3sc(C4=CCNCC4)cc23)c1)c1cccc(C(F)(F)F)c1` [Compound 67, N-{3-[6-(1,2,3,6-tetrahydropyridin-4-yl)thieno[2,3-d]pyrimidin-4-yl]phenyl}-3-(trifluoromethyl)benzamide], under setting [1], the IC50 came out at 2500 nM.
Same read-out and setting: in the case of `CC(=O)Nc1ccc(-c2cc3c(-c4cccc(NC(=O)c5cccc(C(F)(F)F)c5)c4)ncnc3s2)cc1` [Compound 68, N-(3-{6-[4-(acetylamino)phenyl]thieno[2,3-d]pyrimidin-4-yl}phenyl)-3-(trifluoromethyl)benzamide] it was 872 nM.
Same read-out and setting: to `CC(=O)Nc1cccc(-c2cc3c(-c4cccc(NC(=O)c5cccc(C(F)(F)F)c5)c4)ncnc3s2)c1` [Compound 72, N-(3-{6-[3-(acetylamino)phenyl]thieno[2,3-d]pyrimidin-4-yl}phenyl)-3-(trifluoromethyl)benzamide] belongs 2070 nM; to `O=C(Nc1cccc(-c2ncnc3sc(-c4cccnc4)cc23)c1)c1cccc(C(F)(F)F)c1` [Compound 75, N-[3-(6-pyridin-3-ylthieno[2,3-d]pyrimidin-4-yl)phenyl]-3-(trifluoromethyl)benzamide], 1110 nM.
Still for that read-out and setting: in the case of `N#Cc1ccc(-c2cc3c(-c4cccc(NC(=O)c5cccc(C(F)(F)F)c5)c4)ncnc3s2)cc1` [Compound 77, N-{3-[6-(4-cyanophenyl)thieno[2,3-d]pyrimidin-4-yl]phenyl}-3-(trifluoromethyl)benzamide] it was 1230 nM; in that of `O=C(Nc1cccc(-c2ncnc3sc(-c4ccc(Cl)cc4)cc23)c1)c1cccc(C(F)(F)F)c1` [Compound 79, N-{3-[6-(4-chlorophenyl)thieno[2,3-d]pyrimidin-4-yl]phenyl}-3-(trifluoromethyl)benzamide], 4670 nM; in that of `CC(=O)c1ccc(-c2cc3c(-c4cccc(NC(=O)c5cccc(C(F)(F)F)c5)c4)ncnc3s2)cc1` [Compound 80, N-{3-[6-(4-acetylphenyl)thieno[2,3-d]pyrimidin-4-yl]phenyl}-3-(trifluoromethyl)benzamide], 2730 nM.
As for `CC(=O)c1cccc(-c2cc3c(-c4cccc(NC(=O)c5cccc(C(F)(F)F)c5)c4)ncnc3s2)c1` [Compound 81, N-{3-[6-(3-acetylphenyl)thieno[2,3-d]pyrimidin-4-yl]phenyl}-3-(trifluoromethyl)benzamide], the IC50 under setting [1] was determined as 3200 nM.
As for `CNC(=O)c1cc(-c2cc3c(-c4cccc(NC(=O)c5cccc(C(F)(F)F)c5)c4)ncnc3s2)ccn1` [Compound 85, N-methyl-4-[4-(3-{[3-(trifluoromethyl)benzoyl]amino}phenyl)thieno[2,3-d]pyrimidin-6-yl]pyridine-2-carboxamide], the IC50 under setting [1] stood at 730 nM.
For the compound `O=C(Nc1cccc(-c2ncnc3sc(-c4ccnc(NCCN5CCOCC5)c4)cc23)c1)c1cccc(C(F)(F)F)c1` [Compound 86, N-[3-(6-{2-[(2-morpholin-4-ylethyl)amino]pyridin-4-yl}thieno[2,3-d]pyrimidin-4-yl)phenyl]-3-(trifluoromethyl)benzamide], the IC50 was 144 nM.
Consider `O=C(Nc1cccc(-c2ncnc3sc(-c4ccnc(NCCCn5ccnc5)c4)cc23)c1)c1cccc(C(F)(F)F)c1` [Compound 87, N-{3-[6-(2-{[3-(1H-imidazol-1-yl)propyl]amino}pyridin-4-yl)thieno[2,3-d]pyrimidin-4-yl]phenyl}-3-(trifluoromethyl)benzamide], for which the IC50 under setting [1] came to 158 nM.
The same measure, in the same setting: in the case of `N#Cc1cc2c(-c3cccc(NC(=O)c4cccc(C(F)(F)F)c4)c3)ncnc2s1` [Compound 88, N-[3-(6-cyanothieno[2,3-d]pyrimidin-4-yl)phenyl]-3-(trifluoromethyl)benzamide] it was 5980 nM; in that of `NC(=O)c1cc2c(-c3cccc(NC(=O)c4cccc(C(F)(F)F)c4)c3)ncnc2s1` [Compound 89, 4-(3-{[3-(trifluoromethyl)benzoyl]amino}phenyl)thieno[2,3-d]pyrimidine-6-carboxamide], 2720 nM.
On to `N#Cc1ccccc1Cn1ccc2c(-c3cccc(NC(=O)c4cccc(C(F)(F)F)c4)c3)ncnc21` [Compound 94, N-{3-[7-(2-cyanobenzyl)-7H-pyrrolo[2,3-d]pyrimidin-4-yl]phenyl}-3-(trifluoromethyl)benzamide], for which the IC50 stood at 2470 nM.
Turning to `O=C(Nc1cccc(-c2ncnc3c2ccn3Cc2ccncc2)c1)c1cccc(C(F)(F)F)c1` [Compound 98, N-{3-[7-(pyridin-4-ylmethyl)-7H-pyrrolo[2,3-d]pyrimidin-4-yl]phenyl}-3-(trifluoromethyl)benzamide], the IC50 turned out to be 1020 nM.
Consider `O=C(Nc1cccc(-c2ncnc3[nH]c(-c4ccncc4)cc23)c1)c1cccc(C(F)(F)F)c1` [Compound 101, N-[3-(6-pyridin-4-yl-7H-pyrrolo[2,3-d]pyrimidin-4-yl)phenyl]-3-(trifluoromethyl)benzamide], for which the IC50 under setting [1] was determined as 34.5 nM.
